From patent publication US20100267561A1, “HERBICIDAL PYRIDAZINONE DERIVATIVES” (priority 2007, published 2010)

How the values were obtained:
Assay in all cases: Test B pre-/postemergence plant response
Format in all cases: in vivo
[1] = test system: Italian ryegrass (Lolium multiflorum)
Summary of the method: (§1)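 Seeds were sown and sprayed preemergence, while plants at 2 to 18 cm (1- to 4-leaf stage) got postemergence sprays. Compounds were formulated in a non-phytotoxic solvent mixture with surfactant. After 13 to 15 days in a greenhouse, injury was rated visually against untreated controls, 0 (no effect) to 100 (complete control).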

[2] = test system: Russian thistle (Salsola iberica); conditions: Preemergence; for Russian Thistle plant response rating: scale 0 to 100
Summary of the method: as §1

[3] = test system: bermudagrass (Cynodon dactylon); conditions: for Bermudagrass plant response rating: 8 g ai/ha
Summary of the method: as §1

corn (Zea mays) = test system: corn (Zea mays)
Summary of the method: as §1

[4] = test system: downy bromegrass (Bromus tectorum); conditions: for Bromegrass, Downy plant response rating: 8 g ai/ha
Summary of the method: as §1

[5] = test system: eastern black (E.B.) nightshade (Solanum ptycanthum); conditions: Preemergence
Summary of the method: as §1

[6] = test system: green foxtail (Setaria viridis)
Summary of the method: as §1

kochia (Kochia scoparia) = conditions: for Kochia plant response rating: postemergence, 0-100 scale
Summary of the method: as §1

[7] = test system: morningglory (Ipomoea coccinea)
Summary of the method: as §1

[8] = test system: pigweed (Amaranthus retroflexus)
Summary of the method: as §1

soybean (Glycine max) = conditions: Preemergence; for Soybean plant response rating: scale 0 to 100
Summary of the method: as §1

[9] = test system: surinam grass (Brachiaria decumbens)
Summary of the method: as §1

[10] = test system: velvetleaf (Abutilon theophrasti)
Summary of the method: as §1

[11] = test system: woolly cupgrass (Eriochloa villosa)
Summary of the method: as §1

[12] = 8 g ai/ha, postemergence, 0-100 scale
[13] = 16 g ai/ha, postemergence, 0-100 scale
[14] = Postemergence, 31 g ai/ha, scale 0 to 100
[15] = Postemergence, 62 g ai/ha, scale 0 to 100, 0 no effect, 100 complete control
[16] = Preemergence, 31 g ai/ha, scale 0 to 100 (0 no effect, 100 complete control)
[17] = Preemergence, 62 g ai/ha, 0 to 100 scale, 0 no effect, 100 complete control
[18] = Preemergence, 8 g ai/ha, scale 0 to 100
[19] = Preemergence, 16 g ai/ha, scale 0 to 100
[20] = 31 g ai/ha, scale 0 to 100 (0 no effect, 100 complete control)
[21] = 62 g ai/ha, 0 to 100 scale, 0 no effect, 100 complete control
[22] = Postemergence, 16 g ai/ha, scale 0 to 100
[23] = Preemergence, 16 g ai/ha, scale 0 to 100 (0 no effect, 100 complete control)

## CCc1cc(-c2ccc(Br)cc2)nn1-c1c(O)cnn(C)c1=O [Compound 61]
[1]; [12]
  Ryegrass, Italian plant response rating: 100
[1]; [13]
  Ryegrass, Italian plant response rating: 100
[1]; [14]
  Plant response rating, Ryegrass, Italian: 100
[1]; [15]
  Plant response rating, Ryegrass, Italian: 100
[1]; [16]
  Plant response rating, Ryegrass, Italian: 100
[1]; [17]
  Plant response rating, Ryegrass, Italian: 100
[1]; [18]
  Ryegrass, Italian plant response rating: 85
[1]; [19]
  Ryegrass, Italian plant response rating: 100
[2]; [20]
  Plant response rating, Russian Thistle: 0
[2]; [21]
  Plant response rating, Russian Thistle: 0
[2]; 8 g ai/ha
  Russian Thistle plant response rating: 0
[2]; 16 g ai/ha
  Russian Thistle plant response rating: 0
[3]; postemergence, 0-100 scale
  Bermudagrass plant response rating: 55
[3]; [22]
  Plant response rating, Bermudagrass: 70
[3]; [14]
  Plant response rating, Bermudagrass: 95
[3]; [15]
  Plant response rating, Bermudagrass: 100
[3]; Preemergence, scale 0 to 100 (0 no effect, 100 complete control)
  Bermudagrass plant response rating: 55
[3]; [23]
  Plant response rating, Bermudagrass: 80
[3]; [16]
  Plant response rating, Bermudagrass: 90
[3]; [17]
  Plant response rating, Bermudagrass: 95
Corn (Zea mays); [12]
  Corn plant response rating: 75
Corn (Zea mays); [22]
  Plant response rating, Corn: 100
Corn (Zea mays); [14]
  Plant response rating, Corn: 100
Corn (Zea mays); [15]
  Plant response rating, Corn: 100
Corn (Zea mays); [16]
  Plant response rating, Corn: 100
Corn (Zea mays); [17]
  Plant response rating, Corn: 100
Corn (Zea mays); [18]
  Corn plant response rating: 95
Corn (Zea mays); [19]
  Corn plant response rating: 98
[4]; postemergence, 0-100 scale
  Bromegrass, Downy plant response rating: 80
[4]; [22]
  Plant response rating, Bromegrass, Downy: 90
[4]; [14]
  Plant response rating, Bromegrass, Downy: 98
[4]; [15]
  Plant response rating, Bromegrass, Downy: 98
[4]; [23]
  Plant response rating, Bromegrass, Downy: 90
[4]; [16]
  Plant response rating, Bromegrass, Downy: 95
[4]; [17]
  Plant response rating, Bromegrass, Downy: 95
[4]; Preemergence, scale 0 to 100
  Bromegrass, Downy plant response rating: 0
[5]; [20]
  Plant response rating, Nightshade, E. B.: 0
[5]; [21]
  Plant response rating, Nightshade, E. B.: 0
[5]; 16 g ai/ha, scale 0 to 100
  Nightshade, E. B. plant response rating: 0
[6]; [12]
  Foxtail, Green plant response rating: 95
[6]; [22]
  Plant response rating, Foxtail, Green: 100
[6]; [14]
  Plant response rating, Foxtail, Green: 100
[6]; [15]
  Plant response rating, Foxtail, Green: 100
[6]; [16]
  Plant response rating, Foxtail, Green: 100
[6]; [17]
  Plant response rating, Foxtail, Green: 100
[6]; [18]
  Foxtail, Green plant response rating: 100
[6]; [19]
  Foxtail, Green plant response rating: 100
Kochia (Kochia scoparia); 8 g ai/ha
  Kochia plant response rating: 0
Kochia (Kochia scoparia); 16 g ai/ha
  Kochia plant response rating: 0
Kochia (Kochia scoparia); [14]
  Plant response rating, Kochia: 35
Kochia (Kochia scoparia); [15]
  Plant response rating, Kochia: 45
Kochia (Kochia scoparia); [16]
  Plant response rating, Kochia: 0
Kochia (Kochia scoparia); [17]
  Plant response rating, Kochia: 0
[7]; [12]
  Morningglory plant response rating: 0
[7]; [13]
  Morningglory plant response rating: 0
[7]; [14]
  Plant response rating, Morningglory: 0
[7]; [15]
  Plant response rating, Morningglory: 0
[7]; [16]
  Plant response rating, Morningglory: 0
[7]; [17]
  Plant response rating, Morningglory: 0
[7]; [18]
  Morningglory plant response rating: 0
[7]; [19]
  Morningglory plant response rating: 0
[8]; [12]
  Pigweed plant response rating: 0
[8]; [13]
  Pigweed plant response rating: 0
[8]; [14]
  Plant response rating, Pigweed: 0
[8]; [15]
  Plant response rating, Pigweed: 0
[8]; [16]
  Plant response rating, Pigweed: 0
[8]; [17]
  Plant response rating, Pigweed: 0
[8]; [18]
  Pigweed plant response rating: 0
[8]; [19]
  Pigweed plant response rating: 0
Soybean (Glycine max); [20]
  Plant response rating, Soybean: 0
Soybean (Glycine max); [21]
  Plant response rating, Soybean: 0
Soybean (Glycine max); 8 g ai/ha
  Soybean plant response rating: 0
Soybean (Glycine max); 16 g ai/ha
  Soybean plant response rating: 0
[9]; [12]
  Surinam Grass plant response rating: 100
[9]; [13]
  Surinam Grass plant response rating: 100
[9]; [14]
  Plant response rating, Surinam Grass: 100
[9]; [15]
  Plant response rating, Surinam Grass: 100
[9]; [16]
  Plant response rating, Surinam Grass: 100
[9]; [17]
  Plant response rating, Surinam Grass: 100
[9]; [18]
  Surinam Grass plant response rating: 85
[9]; [19]
  Surinam Grass plant response rating: 100
[10]; [12]
  Velvetleaf plant response rating: 0
[10]; [13]
  Velvetleaf plant response rating: 0
[10]; [14]
  Plant response rating, Velvetleaf: 0
[10]; [15]
  Plant response rating, Velvetleaf: 0
[10]; [16]
  Plant response rating, Velvetleaf: 0
[10]; [17]
  Plant response rating, Velvetleaf: 0
[10]; [18]
  Velvetleaf plant response rating: 0
[10]; [19]
  Velvetleaf plant response rating: 0
[11]; [12]
  Cupgrass, Woolly plant response rating: 98
[11]; [22]
  Plant response rating, Cupgrass, Woolly: 100
[11]; [14]
  Plant response rating, Cupgrass, Woolly: 100
[11]; [15]
  Plant response rating, Cupgrass, Woolly: 100
[11]; [16]
  Plant response rating, Cupgrass, Woolly: 100
[11]; [17]
  Plant response rating, Cupgrass, Woolly: 100
[11]; [18]
  Cupgrass, Woolly plant response rating: 80
[11]; [19]
  Cupgrass, Woolly plant response rating: 98
